Measurements as given in publication PMC2935307 (Biochemical pharmacology, 2010).
Several values for one entry are separate records, joined by “and”; a condition that tells them apart may be missing. Equal values may be shown once. Read-outs that look alike come from different tables or passages of the source.

Key:
[1] = target: high affinity epibatidine binding sites (Mus musculus, UniProt O70174+Q9ERK7); test: biochemical
α4β2*-nAChR [2] = target: T1, α4β2*-nAChR (Mus musculus, UniProt O70174+Q9ERK7); type: biochemical
T1 sequence (Q9ERK7 26-501): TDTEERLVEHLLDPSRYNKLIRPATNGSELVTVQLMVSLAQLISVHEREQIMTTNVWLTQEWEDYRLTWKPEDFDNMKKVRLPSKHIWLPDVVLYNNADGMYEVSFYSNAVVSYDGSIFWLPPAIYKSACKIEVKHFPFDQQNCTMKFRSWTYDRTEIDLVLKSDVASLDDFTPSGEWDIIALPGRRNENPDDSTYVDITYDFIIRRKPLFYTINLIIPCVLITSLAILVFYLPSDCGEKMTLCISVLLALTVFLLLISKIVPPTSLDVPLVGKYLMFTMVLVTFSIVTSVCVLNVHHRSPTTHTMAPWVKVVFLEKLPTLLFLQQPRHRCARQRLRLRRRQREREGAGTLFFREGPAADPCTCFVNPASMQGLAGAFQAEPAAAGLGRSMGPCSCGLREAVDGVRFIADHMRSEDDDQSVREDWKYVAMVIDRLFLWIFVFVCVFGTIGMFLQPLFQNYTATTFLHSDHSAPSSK
T1 sequence (O70174 31-629): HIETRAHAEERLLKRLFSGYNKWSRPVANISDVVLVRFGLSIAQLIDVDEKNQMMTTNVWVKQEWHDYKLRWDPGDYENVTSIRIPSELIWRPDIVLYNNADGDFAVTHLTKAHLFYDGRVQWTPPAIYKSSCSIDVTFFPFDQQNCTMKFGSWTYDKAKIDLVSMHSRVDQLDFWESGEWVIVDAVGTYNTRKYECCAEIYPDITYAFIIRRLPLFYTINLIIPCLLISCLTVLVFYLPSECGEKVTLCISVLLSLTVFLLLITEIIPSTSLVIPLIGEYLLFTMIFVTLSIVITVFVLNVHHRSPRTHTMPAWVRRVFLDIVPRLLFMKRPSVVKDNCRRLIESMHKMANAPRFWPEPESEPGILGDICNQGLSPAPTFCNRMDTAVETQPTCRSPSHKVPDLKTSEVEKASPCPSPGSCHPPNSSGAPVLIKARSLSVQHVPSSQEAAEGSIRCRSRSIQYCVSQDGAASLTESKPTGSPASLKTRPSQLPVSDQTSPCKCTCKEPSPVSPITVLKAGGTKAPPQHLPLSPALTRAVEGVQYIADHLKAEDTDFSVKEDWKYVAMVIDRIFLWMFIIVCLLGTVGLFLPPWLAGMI

α4β2*-nAChR [3] = target: T1, α4β2*-nAChR; test: biochemical
α4β2*-nAChR [4] = target: T1, α4β2*-nAChR; settings: cited from earlier work
α4β2*-nAChR [5] = target: T1, α4β2*-nAChR; settings: total efflux normalized to baseline
[6] = target: epibatidine binding sites (Mus musculus, UniProt O70174+Q9ERK7)
Chain of epibatidine binding sites (Q9ERK7 26-501): as the sequence (Q9ERK7 26-501) above
Chain of epibatidine binding sites (O70174 31-629): as the sequence (O70174 31-629) above

α4β2-nAChR = settings: read-out: IC50 for desensitization by nicotine; transfected cells; cited from earlier work
[7] = tested on: α4β2*-nAChR binding sites; settings: mice treated chronically with nicotine; cited from earlier work
[8] = IC50 for desensitization of the LS component
[9] = HS EC50 for 86Rb+ efflux from Marks et al., 1999, errors by Taylor's expansion
[10] = LS EC50 for 86Rb+ efflux from Marks et al., 1999, errors by Taylor's expansion
[11] = cortex, nicotine infusion 0.5 mg/kg/hr
[12] = cortex, nicotine infusion 4.0 mg/kg/hr
[13] = thalamus, nicotine infusion 0.5 mg/kg/hr
[14] = thalamus, nicotine infusion 4.0 mg/kg/hr

Chain of high affinity epibatidine binding sites (Q9ERK7 26-501): as the sequence (Q9ERK7 26-501) above
Chain of high affinity epibatidine binding sites (O70174 31-629): as the sequence (O70174 31-629) above

Clc1ccc(C2CC3CCC2N3)cn1 (racemic) [epibatidine, (±)-epibatidine]
Ki [1]: 0.024 ± 0.008 nM
% des (α4β2*-nAChR [2]): 69.9 ± 6.1% and 64.5 ± 11.7% and 96.7 ± 8.9% and 93.8 ± 7.4%
Ratio KI High Affinity Binding/Desensitization IC50 (α4β2*-nAChR [3]): 0.065±0.022
Ratio: HS EC50/Desensitization IC50 (α4β2*-nAChR [3]): 154±44
Ratio: LS EC50/Desensitization IC50 (α4β2*-nAChR [3]): 6000 and 6000±870
IC50 (α4β2*-nAChR [3]; IC50 Desensitization): 0.37 ± 0.02 nM
IC50 (α4β2*-nAChR [3]; IC50 for desensitization of the HS component): 0.33 ± 0.09 nM
IC50 (α4β2*-nAChR [3]; [8]): 0.38 ± 0.09 nM
Difference in EC50 values for stimulation of HS and LS responses (α4β2*-nAChR [4]; mouse brain synaptosomes): 39 fold

O=c1cccc2n1C[C@@H]1CNC[C@H]2C1 [cytisine]
Ki [1]: 0.32 ± 0.02 nM
Ratio KI High Affinity Binding/Desensitization IC50 (α4β2*-nAChR [3]): 0.119±0.011
Ratio: HS EC50/Desensitization IC50 (α4β2*-nAChR [3]; [9]): 4.8
IC50 (α4β2*-nAChR [3]; IC50 Desensitization): 2.7 ± 0.2 nM
IC50 (α4β2*-nAChR [3]; [8]): 5.4 ± 1.4 nM
Ratio: LS EC50/Desensitization IC50 (α4β2*-nAChR [3]; [10]): 56000±23000
Difference in EC50 values for stimulation of HS and LS responses (α4β2*-nAChR [4]): 11,500 fold

CNC(=O)OCC[N+](C)(C)C.[Cl-] [methylcarbachol, methycarbachol chloride]
Ki ([1]; read-out: Ki, high affinity epibatidine binding): 7.9 ± 1.7 nM
% des (α4β2*-nAChR [2]): 50.9 ± 8.8% and 56.0 ± 8.1% and 94.3 ± 7.3% and 88.7 ± 6.4%
Ratio: HS EC50/Desensitization IC50 (α4β2*-nAChR [3]; [9]): 380
Ratio: LS EC50/Desensitization IC50 (α4β2*-nAChR [3]; [10]): 56,000
Ratio KI High Affinity Binding/Desensitization IC50 (α4β2*-nAChR [3]; errors by Taylor's expansion): 0.156±0.042
Difference in EC50 values for stimulation of HS and LS responses (α4β2*-nAChR [4]; mouse brain synaptosomes): 38 fold

CN1CCC[C@H]1c1cccnc1 [nicotine]
High Sensitivity 86Rb+ Efflux (maximal) (α4β2*-nAChR [5]; [11]): 2.06±0.19
Low Sensitivity 86Rb+ Efflux (maximal) (α4β2*-nAChR [5]; [11]): 6.80±0.50
High Sensitivity 86Rb+ Efflux (maximal) (α4β2*-nAChR [5]; [12]): 1.88±0.11
Low Sensitivity 86Rb+ Efflux (maximal) (α4β2*-nAChR [5]; [12]): 5.63±0.80
High Sensitivity 86Rb+ Efflux (maximal) (α4β2*-nAChR [5]; [13]): 10.19±0.99
Low Sensitivity 86Rb+ Efflux (maximal) (α4β2*-nAChR [5]; [13]): 13.84±2.48
High Sensitivity 86Rb+ Efflux (maximal) (α4β2*-nAChR [5]; [14]): 6.76±1.19
Low Sensitivity 86Rb+ Efflux (maximal) (α4β2*-nAChR [5]; [14]): 12.52±1.96
[125I]-Epibatidine Bound [6, 11]: 127.9±1.1 fmol/mg protein
[125I]-Epibatidine Bound [6, 12]: 139.0±1.2 fmol/mg protein
[125I]-Epibatidine Bound [6, 13]: 240.7±2.5 fmol/mg protein
[125I]-Epibatidine Bound [6, 14]: 256.8±2.9 fmol/mg protein
Difference in EC50 values for stimulation of HS and LS responses (α4β2*-nAChR [4]): 94 fold
average dose for half-maximal upregulation of α4β2*-nAChR binding sites [7]: 0.44 mg/kg/h
